PMC6359144 (International Journal of Molecular Sciences, 2019)

Key:
nude mice = assay: In vivo toxicity in nude mice; parameters: species or system mouse; conditions: 1 × 100 mg/kg i.p., 1 × 200 mg/kg orally
Method: In vivo toxicity of 4d was studied in nude mice (Charles River Laboratories, Sulzfeld, Germany). These experiments were carried out following the institutional guidelines. 4d was formulated in 10% Tween80/10% ethanol/80% saline for administration. […] The body weight of the mice was assessed daily under therapy.

[1] = tested on: acetyl–alpha-tubulin in 518A2 melanoma cells; assay: Western blot and immunofluorescence of acetyl-alpha-tubulin; assay type: cell-based, human; conditions: 4f 4, 5, 6 µM (blot), 4 µM (immunofluorescence), 24 h
Method: After harvesting the cells by trypsination, they were pelleted by centrifugation (300× g, 5 min) followed by cell lysis in 100 µL lysis buffer (20 mM DTT, 200 µM sodium vanadate, 50 mM Tris/HCl, 1% triton X-100, 150 mM NaCl, pH 7.4) for 10 min on ice. […] Equal amounts of total protein were subjected to 10% SDS-polyacrylamide gel electrophoresis (SDS-PAGE) and transferred to polyvinylidene difluoride membranes (PVDF, Carl Roth). For subsequent analysis of acetylated protein and of alpha-tubulin which was used as a loading control, membranes were blocked and incubated with primary antibody solutions in 5% bovine serum albumin in 1× TBS or 5% milk powder in PBS, respectively. The protein bands were visualized by chemoluminescence (secondary antibody-HRP conjugates, ECL detection system; Cell Signaling) using a LAS-3000 imager (Fujifilm).
Immuofluorescence staining of acetylated alpha- tubulin.
After washing the cells with PBS, they were fixed in 3.7% formaldehyde in PBS (20 min, rt) followed by blocking and permeabilization in TBS supplemented with 5% BSA and 0.1% triton X-100 (30 min, rt). […]
antibody conjugate in the dark (2 h, rt). […] Pictures were taken by using a Zeiss Imager A1 AX10 fluorescence microscope (400× magnification). […]
The open image area after 24 h (%) compared to that at 0 h was quantified from three independent experiments by using the imageJ 1.50i software. […]

SMILES	body weight changes (nude mice) [%]	tolerability in mice (nude mice; observed two weeks)	acetylation of alpha-tubulin [1]
COc1ccc(-c2ocnc2-c2cc(Br)c(OC)c(OC)c2)cc1OCCCC(=O)NO [4d, N-Hydroxy-4-[1-methoxy-4-(4’-(3’’-bromo-4’’,5’’-dimethoxyphenyl)oxazol-5’-yl)-2-phenoxy]butanamide]	≤ 5	tolerated well	
COc1ccc(-c2ocnc2-c2cc(Br)c(OC)c(OC)c2)cc1OCCCCCC(=O)NO [4f, N-Hydroxy-6-[1-methoxy-4-(4’-(3’’-bromo-4’’,5’’-dimethoxyphenyl)oxazol-5’-yl)-2-phenoxy]hexanamide]			distinct increase of acetyl–alpha-tubulin
